Data: US10213444B2, “Composition and method for treating bipolar disorder” (LAUREATE INSTITUTE FOR BRAIN RESEARCH, priority 2014, dated 2019)

Legend:
[1] = test system: subjects with bipolar disorder during a current major depressive episode (bipolar depression); test: Double-blind, placebo-controlled 2×2 trial in bipolar depression (MADRS, YMRS); type: in vivo, human; details: LOCF; for Percentage of female responders: female patients; for Percentage of female responders / Percentage of responders (BMI >30): >50% reduction in MADRS; for Percentage of responders (BMI >30): subset BMI >30; for Percentage of responders: total sample, response = greater than 50% reduction in MADRS baseline to final, 6 weeks, ASA 81 mg b.i.d., minocycline 100 mg b.i.d. p.o.
Method: (§1) The above pharmaceutical compound comprising minocycline and acetylsalicylic acid was tested using a double-blind, placebo-controlled trial with a 2×2design. The study examined subjects with bipolar disorder during a current major depressive episode (“bipolar depression”). Most subjects were either partial responders to existing antidepressant and/or mood stabilizing treatments or were treatment resistant. The subjects were randomized to receive either (1) placebo-minocycline plus placebo-acetylsalicylic acid, or (2) active-minocycline (100 mg b.i.d.) plus placebo-acetylsalicylic acid, or (3) placebo-minocycline plus active-acetylsalicylic acid (81 mg b.i.d.), or (4) active-minocycline (100 mg b.i.d.) plus active-acetylsalicylic acid (81 mg b.i.d.) (FIG. 1). Clinical symptoms of depression and mania were measured using the Montgomery-Asberg Depression Rating Scale (MADRS) and the Young Mania Rating Scale (YMRS), respectively.
For the data produced below, the treatment method for administering the combination of each composition, including the active-minocycline and active-acetylsalicylic acid, entailed the following steps: administer ASA 81 mg p.o b.i.d and minocycline 100 mg p.o b.i.d. As depicted in FIG. 1, each session number (total of 7) is encircled, with the timing between sessions indicated in weeks with a 2business day window on either side of visit target date to complete the visit. Session 1(far left) is the baseline and session 7(far right) is the study end. The study duration is 6weeks.
Of the 99patients who were randomized, 87started treatment and completed a sufficient number of sessions (at least 3weeks of treatment) to be included in the last-observation carried forward analysis (LOCF) shown below. For these 87subjects, 79completed the entire study. Eight subjects dropped-out early, all from the active treatment groups—4from minocycline+ASA, 3from ASA+placebo, and one from minocycline+placebo. Since existing anti-depressant medications generally begin to exert antidepressant effects within 3weeks, in this trial, data from patients with at least 3weeks of treatment were including in the LOCF analysis.
Response to medication/placebo was defined as a greater than 50% reduction in MADRS scores between the baseline and final assessment. Table 2provides results reflecting percentage of treatment responders by group, and relative risk reduction (RRR), absolute risk reduction (ARR) and, number needed to treat (NNT) for the combination ASA/minocycline treatment.

[2] = test system: patients with major depressive disorder; test: Same trial, subset of patients with major depressive disorder (unipolar depression); type: in vivo, human; details: subset with major depressive disorder (n=10)
Method: as §1
In the subset of patients with major depressive disorder (n=10), 75% responded to the combination of minocycline+ASA (3/4) compared to 50% response in the minocycline+placebo group (1/2), and 0% in the ASA+placebo group (0/3). The data document that the combination of minocycline and ASA has effectiveness for the treatment of additional forms of non-bipolar depression such as major depressive disorder and dysthymia. […]

[3] = administered orally; cited from earlier work
[4] = test system: individuals receiving lithium treatment (bipolar symptoms); details: cited from earlier work
[5] = administered orally; cited from earlier work; remark: listed apart in the source

| Compound | Percentage of female responders [1] | Percentage of responders (BMI >30) [1] | Percentage of responders [1] | percent responded (MADRS response) [2] | brain to blood ratio [3] | level within brain as percent of level within blood plasma [3] | effect on medication events ([4]; high-dose aspirin or other anti-inflammatory classes added to lithium treatment) | less likely to have a medication event ([4]; low-dose (≤81 to 162 mg/day) aspirin added to lithium treatment) | level within cerebrospinal fluid as percent of plasma concentrations [5] |
| --- | --- | --- | --- | --- | --- | --- | --- | --- | --- |
| CC(=O)Oc1ccccc1C(=O)O [ASA, acetylsalicylic acid] | 50% | 44% | 56% | 0% | 0.32 | 32% | increase in medication events | 17% | – |
| CN(C)c1ccc(O)c2c1C[C@H]1C[C@H]3[C@H](N(C)C)C(O)=C(C(N)=O)C(=O)[C@@]3(O)C(O)=C1C2=O [minocycline] | 55% | 38% | 38% | 50% | – | – | – | – | 11-56% |
